Reference: patent US20220041627A1, “PRODRUGS OF ANTI-CANCER AND ANTI-AUTOIMMUNE DISEASES THERAPEUTIC AGENTS, AND METHODS OF MAKING AND USE THEREOF” (UNIVERSITY OF MARYLAND, BALTIMORE, priority 2018, published 2022)

Assays:
Assay type in all cases: cell-based, human
PARP1 = assay: Western blot of PARP1 in MCF7 cells; conditions: 48 h; for expression level of PARP1: compared to vehicle-treated cells; for level of cleavage of PARP1: compared to vehicle-treated controls
Description: (§1) FIGS. 4A and 4B illustrate the effect of compounds 1a-1b in apoptosis. FIG. 4A: immunofluorescence of DNA cleavage protein γH2Ax was enhanced by using 5-FU and prodrugs 1a-1b. FIG. 4B: immunoblot analysis of MCF-7 cells treated with 5-FU, prodrugs 1a-1b for apoptosis markers PARP1 and Caspase 3. The cells were treated for 48 h with the indicated concentrations of compounds.
(§2) Western Blot Analysis. Treated cells were washed once with PBS and lysed with RIPA lysis buffer (Santa Cruz Biotechnology, SCBT, #24948) supplemented with sodium orthovanadate, PMSF, protease and phosphatase inhibitor cocktails (Sigma Aldrich). Cell lysates were centrifuge for 15 min at 14,000×g and the supernatant was used for immunoblotting. Protein concentration was normalized for the samples and resolved on a 10-13% SDS-PAGE gel. Following transfer to nitrocellulose membrane, specific mouse primary antibodies from SCBT (PARP1 #sc-8007, caspase 3 #sc-7272) and Cell Signaling (cleaved PARP1 #9541, cleaved caspase-3 #9664) were added and incubated overnight. Secondary antibodies corresponding to the host of the primary antibodies was further incubated with the membrane and washed three times to remove excess antibodies. Odyssey Fc Imaging System (LI-COR, Lincoln, Nebr.) was used to quantify the chemiluminescent of the proteins.
(§3) To understand the mechanism of action of prodrugs 1a-1b, the impact of the treatment of compounds 1a-1b on the γH2AX formation in MCF7 cells were determined using immunofluorescence assay (FIG. 4A). […] The effects of prodrugs 1a-1b on the PARP1 and caspase 3 cleavage in MCF7 cells were also determined using Western blots assays (FIG. 4B). […] Treatment of 5-FU and compounds 1a-1b increased the levels of cleavage of PARP1 and caspase 3 in MCF7 cells, as compared with that in the vehicle-treated controls. Therefore, prodrugs 1a-1b, similar to 5-FU, can induce MCF7 cell apoptosis, which might contribute to their pharmacological actions.

HCT-15 = assay: NCI-60 growth inhibition, HCT-15
Excerpt: (§4) The anticancer effects of compounds 1a-1b against 60 human cancer cell lines (the Developmental Therapeutics Program of NCI) were studied. The cell lines were derived from different cancer types including leukemia, non-small-cell lung cancer, colon cancer, CNS cancer, melanoma, ovarian cancer, renal cancer, prostate cancer, and breast cancer (Table 1; the assay protocol can be found at: https://dtp.cancer.gov/default.htm). Compound 1a caused over 50% growth inhibition for most tested cell lines. […] Without wishing to be bound by any particular theory, it is believed that the differences in the anticancer effects between compounds 1a and 1b may be due to the more favorable cell membrane permeability of the boronic ester 1a.

HT29 = assay: NCI-60 growth inhibition, HT29
Excerpt: as §4

EKVX = assay: NCI-60 growth inhibition, EKVX; conditions: Non-Small Cell lung Cancer EKVX, 48 h
Excerpt: as §4

NCI/ADR-RES = assay: NCI-60 growth inhibition, NCI/ADR-RES; conditions: Ovarian Cancer NCI/ADR-RES, 48 h
Excerpt: as §4

HCT-116 = assay: NCI-60 growth inhibition, HCT-116
Excerpt: as §4

DU-145 = assay: NCI-60 growth inhibition, DU-145
Excerpt: as §4

M14 = assay: NCI-60 growth inhibition, M14
Excerpt: as §4

NCI-H322M = assay: NCI-60 growth inhibition, NCI-H322M; conditions: Non-Small Cell lung Cancer NCI-H322M, 48 h
Excerpt: as §4

OVCAR-3 = assay: NCI-60 growth inhibition, OVCAR-3
Excerpt: as §4

K-562 = assay: NCI-60 growth inhibition, K-562
Excerpt: as §4

CAKI-1 = assay: NCI-60 growth inhibition, CAKI-1
Excerpt: as §4

SW-620 = assay: NCI-60 growth inhibition, SW-620
Excerpt: as §4

OVCAR-8 = assay: NCI-60 growth inhibition, OVCAR-8
Excerpt: as §4

HS 578T = assay: NCI-60 growth inhibition, HS 578T; conditions: Breast Cancer HS 578T, 48 h
Excerpt: as §4

NCI-H226 = assay: NCI-60 growth inhibition, NCI-H226
Excerpt: as §4

COLO 205 = assay: NCI-60 growth inhibition, COLO 205
Excerpt: as §4

caspase 3 = assay: Western blot of caspase 3 in MCF7 cells; conditions: 48 h; for expression level of caspase 3: compared to vehicle-treated cells; for level of cleavage of caspase 3: compared to vehicle-treated controls
Description: as §1, §2, §3

MDA-MB-468 = assay: NCI-60 growth inhibition, MDA-MB-468
Excerpt: as §4

SMILES: CC1(C)OB(c2ccc(Cn3cc(F)c(=O)[nH]c3=O)cc2)OC1(C)C [Compound 1a, 5-Fluoro-1-(4-(4,4,5,5-tetramethyl-1,3,2-dioxaborolan-2-yl)benzyl)pyrimidine-2,4(1H,3H)-dione]
- expression level of PARP1 (PARP1): significantly reduced
- level of cleavage of PARP1 (PARP1): increased
- inhibition at 50 µM (HCT-15; Homo sapiens, Colon Cancer HCT-15, 48 h): 32%
- inhibition at 50 µM (HT29; Homo sapiens, HT-29, Colon Cancer HT29, 48 h): 76%
- inhibition at 50 µM (EKVX; Homo sapiens): 28%
- inhibition at 50 µM (NCI/ADR-RES; Homo sapiens): 6%
- inhibition at 50 µM (HCT-116; Homo sapiens, Colon Cancer HCT-116, 48 h): 71%
- inhibition at 50 µM (DU-145; Homo sapiens, Prostate Cancer DU-145, 48 h): 16%
- inhibition at 50 µM (M14; Homo sapiens, Melanoma M14, 48 h): 55%
- inhibition at 50 µM (NCI-H322M; Homo sapiens): 14%
- inhibition at 50 µM (OVCAR-3; Homo sapiens, Ovarian Cancer OVCAR-3, 48 h): 95%
- inhibition at 50 µM (K-562; Homo sapiens, K562, Leukemia K-562, 48 h): 70%
- inhibition at 50 µM (CAKI-1; Homo sapiens, Renal Cancer CAKI-1, 48 h): 25%
- inhibition at 50 µM (SW-620; Homo sapiens, Colon Cancer SW-620, 48 h): 66%
- inhibition at 50 µM (OVCAR-8; Homo sapiens, Ovarian Cancer OVCAR-8, 48 h): 25%
- inhibition at 50 µM (HS 578T; Homo sapiens): 63%
- inhibition at 50 µM (NCI-H226; Homo sapiens, Non-Small Cell lung Cancer NCI-H226, 48 h): 36%
- inhibition at 50 µM (COLO 205; Homo sapiens, Colon Cancer COLO 205, 48 h): 64%
- expression level of caspase 3 (caspase 3): significantly reduced
- level of cleavage of caspase 3 (caspase 3): increased
- inhibition at 50 µM (MDA-MB-468; Homo sapiens, Breast Cancer MDA-MB-468, 48 h): 87%

SMILES: O=c1[nH]c(=O)n(Cc2ccc(B(O)O)cc2)cc1F [Compound 1b, (4-((5-Fluoro-2,4-dioxo-3,4-dihydropyrimidin-I(2H)-yl)methyl)phenyl)boronic acid]
- expression level of PARP1 (PARP1): significantly reduced
- level of cleavage of PARP1 (PARP1): increased
- Growth Inhibition (%) (HCT-15; Colon Cancer HCT-15, 50 μM, 48 h): 10%
- Growth Inhibition (%) (HT29; Colon Cancer HT29, 50 μM, 48 h): 12%
- Growth Inhibition (%) (EKVX; 50 μM): 16%
- Growth Inhibition (%) (NCI/ADR-RES; 50 μM): 0%
- Growth Inhibition (%) (HCT-116; Colon Cancer HCT-116, 50 μM, 48 h): 18%
- Growth Inhibition (%) (DU-145; Prostate Cancer DU-145, 50 μM, 48 h): −6%
- Growth Inhibition (%) (M14; Melanoma M14, 50 μM, 48 h): 17%
- Growth Inhibition (%) (NCI-H322M; 50 μM): 12%
- Growth Inhibition (%) (OVCAR-3; Ovarian Cancer OVCAR-3, 50 μM, 48 h): 30%
- Growth Inhibition (%) (K-562; Leukemia K-562, 50 μM, 48 h): 18%
- Growth Inhibition (%) (CAKI-1; Renal Cancer CAKI-1, 50 μM, 48 h): 12%
- Growth Inhibition (%) (SW-620; Colon Cancer SW-620, 50 μM, 48 h): 17%
- Growth Inhibition (%) (OVCAR-8; Ovarian Cancer OVCAR-8, 50 μM, 48 h): 6%
- Growth Inhibition (%) (HS 578T; 50 μM): 26%
- Growth Inhibition (%) (NCI-H226; Non-Small Cell lung Cancer NCI-H226, 50 μM, 48 h): 19%
- Growth Inhibition (%) (COLO 205; Colon Cancer COLO 205, 50 μM, 48 h): 8%
- expression level of caspase 3 (caspase 3): significantly reduced
- level of cleavage of caspase 3 (caspase 3): increased
- Growth Inhibition (%) (MDA-MB-468; Breast Cancer MDA-MB-468, 50 μM, 48 h): 22%
